Reference: patent US8148368B2, “7-nitro-2-(3-nitro phenyl)-4H-3,1-benzoxazin-4-one or derivatives thereof for treating or preventing antiviral infections” (priority 2010, dated 2012)

Key:
[1] = test system: HCV sub-genomic replicon in FCA-4 cells; assay: Antiviral effect in FCA-4 HCV 1b sub-genomic replicon cells, RT-PCR of HCV RNA; assay type: cell-based, hepatitis C virus
Text: FCA-4 sub genomic replicon was bicistronic construct composed of the HCV IRES (nucleotides 1 to 377 of the 5′NCR); the neomycin phosphotransferase (neo) gene; the encephalomyocarditis IRES, which mediates the translation of HCV nonstructural proteins NS3 through NS5; and the 3′NCR as shown in FIG. 2. […] FCA-4 sub-genomic replicon consists of single adaptive mutation and a deletion of a serine residue at position 1176 (Guo et al, 2001).
The bicistronic RNA molecule contains the HCV IRES and a few core-coding sequences, which are followed by neomycin phosphotransferase gene (Neor). These sequences are followed by the encephalomyocarditis virus IRES placed in front of HCV sequences encoding nonstructural protein NS3 to NS5B, terminating at the HCV 3NCR.
To determine the antiviral effect against HCV, FCA 4 cells were seeded in six well plates. After 24 h, media containing 20 μM of test compound was added to the plates. Cells were incubated at 37° C. in CO2 incubator for additional 48 h. At the end of the incubation, cells were harvested, RNA was extracted and cDNA were generated by oligo dT priming cDNA was amplified by PCR using primers specific to the 5′ UTR and NS5B gene of HCV. Amplification of GAPDH mRNA served as an internal control.

[2] = test system: HCV 3a genotype in MDBK cells; assay: Combination with interferon-α against HCV 3a genotype in MDBK cells, real time quantitative RT-PCR; assay type: cell-based, hepatitis C virus; conditions: interferon-α 5 IU/well, 6 hrs pre-incubation, HCV 3a 2×10^4 copies per well, 18 hrs
Protocol: Surprising synergism was recorded when Compound 1 was combined with Interferon alpha. […] MDBK cells were incubated for 6 hrs with compounds and interferon alone, or combination of compound and interferon in a 96-well plat. After 6 hrs cells were infected with 2×10^4 copies of HCV 3a genotype per well and incubated for additional 18 hrs. At the end of incubation period, total RNA was extracted by Gentra kit, and the levels of HCV RNA remaining were determined, by real time Quantitative RT-PCR assay and are shown as percentage of HCV RNA survival in cells. Results are represented as the average and standard error for three independent experiments.

HCV = conditions: ribavirin alone; cited from earlier work

Row | SMILES | GAPDH mRNA expression (internal control) ([1]; 20 μM, 48 h, FCA 4 cells) | HCV RNA expression ([1]; 20 μM, 48 h, FCA 4 cells, RT-PCR (5′ UTR and NS5B primers)) | antiviral suppression in relation to cytotoxicity ([1]; FCA4 cells) | concentration showing maximum reduction of HCV expression ([1]; dose dependent, FCA4 sub-genomic replicon, 48 h, FIG. 3) | effect of combination with interferon-α on HCV RNA [2] | patients with serum amino transferase levels reduced to normal (HCV)
1 | O=c1oc(-c2cccc([N+](=O)[O-])c2)nc2cc([N+](=O)[O-])ccc12 [Compound 1, 7-nitro-2-(3-nitrophenyl)-4H-3,1-benzoxazin-4-one] | remains unaffected | inhibited HCV RNA expression significantly | independent of cytotoxicity | 10 µM | synergistic effect | –
2 | NC(=O)c1ncn([C@@H]2O[C@H](CO)[C@@H](O)[C@H]2O)n1 [Ribavirin, 1-β-D-ribofuranosyl-1-1,2,4-triazole-3-carboxamide] | – | – | – | – | – | 40%
